# Assay results: ChEMBL document CHEMBL5058541, “EUbOPEN Chemogenomics Library 2 (NanoBRET)” (2022)
# Tests used:
# [1] = biological target: T1, YEATS domain-containing protein 2 (Homo sapiens) (UniProt Q9ULM3); assay: Thermal Shift Assay. Domain: start/stop M1-D141; details: Compound concentration 25.0 uM, Protein concentration 2.0 uM
# T1 sequence (whole entry): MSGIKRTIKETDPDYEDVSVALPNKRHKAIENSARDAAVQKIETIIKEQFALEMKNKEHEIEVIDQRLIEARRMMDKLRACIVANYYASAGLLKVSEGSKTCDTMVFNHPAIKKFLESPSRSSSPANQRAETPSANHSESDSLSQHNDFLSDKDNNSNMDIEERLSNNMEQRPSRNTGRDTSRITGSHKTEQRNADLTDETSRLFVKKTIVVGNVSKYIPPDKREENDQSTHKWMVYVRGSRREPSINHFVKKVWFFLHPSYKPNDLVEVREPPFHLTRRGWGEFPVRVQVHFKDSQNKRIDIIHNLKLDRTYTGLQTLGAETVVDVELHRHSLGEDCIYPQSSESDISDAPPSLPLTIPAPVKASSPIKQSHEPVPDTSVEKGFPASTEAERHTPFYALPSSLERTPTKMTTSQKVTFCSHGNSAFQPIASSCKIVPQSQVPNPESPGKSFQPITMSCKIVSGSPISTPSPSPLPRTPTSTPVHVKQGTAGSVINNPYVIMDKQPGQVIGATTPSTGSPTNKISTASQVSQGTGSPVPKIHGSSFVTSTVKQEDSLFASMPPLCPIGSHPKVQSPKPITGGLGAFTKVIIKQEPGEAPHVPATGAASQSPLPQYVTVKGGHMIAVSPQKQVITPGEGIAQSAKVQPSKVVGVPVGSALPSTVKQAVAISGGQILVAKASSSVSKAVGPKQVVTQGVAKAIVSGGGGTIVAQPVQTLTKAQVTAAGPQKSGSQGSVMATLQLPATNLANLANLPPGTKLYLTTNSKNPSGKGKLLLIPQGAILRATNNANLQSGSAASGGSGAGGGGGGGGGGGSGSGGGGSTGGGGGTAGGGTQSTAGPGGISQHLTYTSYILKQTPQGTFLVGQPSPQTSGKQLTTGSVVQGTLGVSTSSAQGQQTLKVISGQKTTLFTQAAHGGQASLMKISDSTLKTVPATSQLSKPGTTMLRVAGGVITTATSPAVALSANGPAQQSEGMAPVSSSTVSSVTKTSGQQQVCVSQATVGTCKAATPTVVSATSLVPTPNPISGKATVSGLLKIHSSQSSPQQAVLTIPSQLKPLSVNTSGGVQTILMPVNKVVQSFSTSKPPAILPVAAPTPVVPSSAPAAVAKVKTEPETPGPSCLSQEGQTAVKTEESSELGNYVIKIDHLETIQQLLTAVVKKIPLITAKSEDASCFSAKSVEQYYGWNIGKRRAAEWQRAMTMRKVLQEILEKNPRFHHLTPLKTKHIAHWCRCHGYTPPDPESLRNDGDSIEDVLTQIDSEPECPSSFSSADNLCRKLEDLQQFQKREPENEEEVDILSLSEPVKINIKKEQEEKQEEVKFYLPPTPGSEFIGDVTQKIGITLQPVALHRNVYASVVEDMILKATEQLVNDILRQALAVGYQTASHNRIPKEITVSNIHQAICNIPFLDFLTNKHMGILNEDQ
# [2] = biological target: T2, Protein ENL (Homo sapiens) (UniProt Q03111); assay: Thermal Shift Assay. Domain: start/stop M1-A148; details: Compound concentration 25.0 uM, Protein concentration 2.0 uM
# T2 sequence (whole entry): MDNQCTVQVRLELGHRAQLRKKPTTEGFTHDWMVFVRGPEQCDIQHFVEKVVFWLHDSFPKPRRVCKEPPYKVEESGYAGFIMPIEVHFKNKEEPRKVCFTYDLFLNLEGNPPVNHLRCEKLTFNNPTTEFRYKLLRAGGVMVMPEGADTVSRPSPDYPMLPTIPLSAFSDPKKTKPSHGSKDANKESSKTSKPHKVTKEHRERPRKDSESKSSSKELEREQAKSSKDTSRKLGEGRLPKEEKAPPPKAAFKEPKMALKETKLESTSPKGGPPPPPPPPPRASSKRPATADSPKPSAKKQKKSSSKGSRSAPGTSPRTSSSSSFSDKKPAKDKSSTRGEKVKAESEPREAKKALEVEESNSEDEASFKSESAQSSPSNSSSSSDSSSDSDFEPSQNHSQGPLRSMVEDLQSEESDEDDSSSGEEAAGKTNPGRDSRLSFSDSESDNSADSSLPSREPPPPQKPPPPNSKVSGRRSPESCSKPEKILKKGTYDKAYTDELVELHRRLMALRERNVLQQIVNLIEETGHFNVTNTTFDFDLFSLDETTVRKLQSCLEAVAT
# [3] = biological target: Fibroblast growth factor receptor 3 (Homo sapiens) (UniProt P22607); details: Compound concentration 20.0 uM, Protein concentration 2.0 uM, Result type QC Liability
# Fibroblast growth factor receptor 3 (Homo sapiens), sequence (P22607 23-806 limits assumed): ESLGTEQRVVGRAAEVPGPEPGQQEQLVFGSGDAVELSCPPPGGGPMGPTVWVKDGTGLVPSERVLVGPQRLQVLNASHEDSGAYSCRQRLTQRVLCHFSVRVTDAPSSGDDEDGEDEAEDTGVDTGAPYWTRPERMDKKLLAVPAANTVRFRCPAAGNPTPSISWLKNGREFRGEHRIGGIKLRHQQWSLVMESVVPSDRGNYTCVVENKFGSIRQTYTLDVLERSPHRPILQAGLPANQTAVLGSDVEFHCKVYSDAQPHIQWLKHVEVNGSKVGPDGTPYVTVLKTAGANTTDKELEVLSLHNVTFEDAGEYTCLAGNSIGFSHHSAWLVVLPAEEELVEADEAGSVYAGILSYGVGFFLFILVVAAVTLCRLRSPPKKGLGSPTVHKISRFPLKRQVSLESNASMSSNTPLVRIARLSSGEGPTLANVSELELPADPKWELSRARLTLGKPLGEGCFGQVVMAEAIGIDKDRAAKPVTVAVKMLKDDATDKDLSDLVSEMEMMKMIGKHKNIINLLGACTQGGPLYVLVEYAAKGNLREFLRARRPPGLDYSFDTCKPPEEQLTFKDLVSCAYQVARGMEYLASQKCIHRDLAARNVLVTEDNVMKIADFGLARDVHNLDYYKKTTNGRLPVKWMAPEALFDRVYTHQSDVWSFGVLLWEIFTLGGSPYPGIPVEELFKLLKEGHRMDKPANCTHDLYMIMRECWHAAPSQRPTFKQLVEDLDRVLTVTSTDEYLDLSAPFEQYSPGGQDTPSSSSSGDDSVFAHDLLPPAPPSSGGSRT
# Description: Thermal Shift Assay. Domain: start/stop: P449-E759
smiles,measurement,setting,value
CN(C)C(=O)c1ccc(-c2cc(C(=O)N[C@@H]3CCc4ccccc43)no2)cc1O,ΔTm,[1],-0.01 c
same,ΔTm,[2],3.61 c
same,ΔTm,[3],-0.162 c
